In the assay the test system is H1650 cells. Nature of the assay: CellTiterGlo (CTG) cell viability, 3D, 120 h, H1650 (Example 8). It is filed as cell-based, human. To be noted: Homo sapiens, NCI-H1650, H1650 3D. As for the experimental part: H1650 cells were cultivated in RPMI supplemented with 10% heat inactivated fetal bovine serum, penicillin (100 IU/ml), streptomycin (100 μg/ml) and L-glutamine (2 mM). Cell lines were cultured at 37° C. in a humidified atmosphere containing 5% 002. Cells were seeded in 96 microwell round bottom plates (96 microwell Low attachment plates , Costar reference 7007) and exposed to the payloads or ADCs for 120 h (serially diluted; 9 concentrations each, duplicates). Effects of payloads or ADCs on cell viability were assessed after 5 days of incubation at 37° C./5% CO2 by quantification of cellular ATP levels using CellTiterGlo at 75 μL reagent/well. All the conditions were tested in duplicates. Luminescence was quantified on a multipurpose plate reader. IC50S were calculated using standard four-parametric curve fitting. […] Each experiment was performed at least twice, with results being reproducible.

Where [1] appears, read: experiment n1, read-out: H1650 3D CTG IC50 n1.
The mark [2] stands for this setting: experiment n2, read-out: H1650 3D CTG IC50 n2.
[3] abbreviates: mean of n1 and n2, read-out: H1650 3D CTG IC50 Mean of n1 and n2.

Each structure is given as a SMILES string. pIC50: −log10 of the molar value. Where two headings read alike, the source gives them in different places.

By pIC50 is commonly meant −log10 of the IC50, conventionally taken in molar units.

As for `Cc1c(Nc2nc3ccccc3s2)nnc2c1CCCN2c1ccc(-c2cnn(C[C@]34C[C@]5(C)C[C@](C)(C3)C[C@@](OCCN(C)C)(C5)C4)c2C)c(C(=O)O)n1` [P27, 6-{3-[(1,3-benzothiazol-2-yl)amino]-4-methyl-6,7-dihydropyrido[2,3-c]pyridazin-8(5H)-yl}-3-[1-({3-[2-(dimethylamino)ethoxy]-5,7-dimethyladamantan-1-yl}methyl)-5-methyl-1H-pyrazol-4-yl]pyridine-2-carboxylic acid], the pIC50 was 9.66 under setting [1], 9.52 under setting [2] and 9.59 under setting [3].
As to `Cc1c(Nc2nc3ccccc3s2)nnc2c1CCCN2c1nc(C(=O)O)c(CCCOc2ccc(C#CCN(C)C)cc2)s1` [P28, 2-[3-(1,3-benzothiazol-2-ylamino)-4-methyl-6,7-dihydro-5H-pyrido[2,3-c]pyridazin-8-yl]-5-[3-[4-[3-(dimethylamino)prop-1-ynyl]phenoxy]propyl]thiazole-4-carboxylic acid], the pIC50 was 9.41 under setting [1], 9.74 under setting [2] and 9.54 under setting [3].
In the case of `COCCCNCCOC12CC3(C)CC(C)(CC(Cn4ncc(-c5ccc(N(C)c6cc(C)c(Nc7nc8ccccc8s7)nn6)nc5C(=O)O)c4C)(C3)C1)C2` [P29, 6-[[6-(1,3-benzothiazol-2-ylamino)-5-methyl-pyridazin-3-yl]-methyl-amino]-3-[1-[[3-[2-(3-methoxypropylamino)ethoxy]-5,7-dimethyl-1-adamantyl]methyl]-5-methyl-pyrazol-4-yl]pyridine-2-carboxylic acid], the negative-log IC50 (pIC50) is, setting by setting: under setting [1], 9.24; under setting [2], 9.33; under setting [3], 9.28.
As to `Cc1c(Nc2nc3ccccc3s2)nnc2c1CCCN2c1ccc(-c2cnn(C[C@]34C[C@]5(C)C[C@](C)(C3)C[C@@](OCCN3CCNCC3)(C5)C4)c2C)c(C(=O)O)n1` [P31, 6-[3-(1,3-benzothiazol-2-ylamino)-4-methyl-6,7-dihydro-5H-pyrido[2,3-c]pyridazin-8-yl]-3-[1-[[3,5-dimethyl-7-(2-piperazin-1-ylethoxy)-1-adamantyl]methyl]-5-methyl-pyrazol-4-yl]pyridine-2-carboxylic acid], the pIC50 is, setting by setting: under setting [1], 9.24; under setting [2], 8.85; under setting [3], 9.00.
As to `Cc1c(Nc2nc3ccccc3s2)nnc2c1CCCN2c1ccc(-c2cnn(C[C@]34C[C@]5(C)C[C@](C)(C3)C[C@@](OCCN3CCN(C(C)C)CC3)(C5)C4)c2C)c(C(=O)O)n1` [P32, 6-[3-(1,3-benzothiazol-2-ylamino)-4-methyl-6,7-dihydro-5H-pyrido[2,3-c]pyridazin-8-yl]-3-[1-[[3-[2-(4-isopropylpiperazin-1-yl)ethoxy]-5,7-dimethyl-1-adamantyl]methyl]-5-methyl-pyrazol-4-yl]pyridine-2-carboxylic acid], the pIC50 is 9.62 under setting [1], 9.66 under setting [2] and 9.64 under setting [3].
The corresponding values for `Cc1c(Nc2nc3ccccc3s2)nnc2c1CCCN2c1nc(C(=O)O)c(CCCOc2ccc(C#CCN(C)CC[C@H](O)CO)cc2F)s1` [P34, 2-[3-(1,3-benzothiazol-2-ylamino)-4-methyl-6,7-dihydro-5H-pyrido[2,3-c]pyridazin-8-yl]-5-[3-[4-[3-[[(3S)-3,4-dihydroxybutyl]-methyl-amino]prop-1-ynyl]-2-fluoro-phenoxy]propyl]thiazole-4-carboxylic acid] are 9.19, 9.06 and 9.12.
The matching figures for `Cc1c(Nc2nc3ccccc3s2)nnc2c1CCCN2c1ccc(-c2cnn(C[C@]34C[C@]5(C)C[C@](C)(C3)C[C@@](OCCN(C)CCO)(C5)C4)c2C)c(C(=O)O)n1` [P35, 6-[3-(1,3-benzothiazol-2-ylamino)-4-methyl-6,7-dihydro-5H-pyrido[2,3-c]pyridazin-8-yl]-3-[1-[[3-[2-[2-hydroxyethyl(methyl)amino]ethoxy]-5,7-dimethyl-1-adamantyl]methyl]-5-methyl-pyrazol-4-yl]pyridine-2-carboxylic acid]: 9.64, 9.57 and 9.60.
With `COCCCN(C)CCOC12CC3(C)CC(C)(CC(Cn4ncc(-c5ccc(N6CCCc7c6nnc(Nc6nc8ccccc8s6)c7C)nc5C(=O)O)c4C)(C3)C1)C2` [P36, 6-[3-(1,3-benzothiazol-2-ylamino)-4-methyl-6,7-dihydro-5H-pyrido[2,3-c]pyridazin-8-yl]-3-[1-[[3-[2-[3-methoxypropyl(methyl)amino]ethoxy]-5,7-dimethyl-1-adamantyl]methyl]-5-methyl-pyrazol-4-yl]pyridine-2-carboxylic acid], the pIC50 is, setting by setting: under setting [1], 9.59; under setting [2], 9.51; under setting [3], 9.54.
With `Cc1c(Nc2nc3ccccc3s2)nnc2c1CCCN2c1ccc(-c2cnn(C[C@]34C[C@]5(C)C[C@](C)(C3)C[C@@](OCCN(C)CCCCO)(C5)C4)c2C)c(C(=O)O)n1` [P37, 6-[3-(1,3-benzothiazol-2-ylamino)-4-methyl-6,7-dihydro-5H-pyrido[2,3-c]pyridazin-8-yl]-3-[1-[[3-[2-[4-hydroxybutyl(methyl)amino]ethoxy]-5,7-dimethyl-1-adamantyl]methyl]-5-methyl-pyrazol-4-yl]pyridine-2-carboxylic acid], the pIC50 is 9.40 under setting [1], 8.92 under setting [2] and 9.10 under setting [3].
Take `Cc1c(Nc2nc3ccccc3s2)nnc2c1CCCN2c1ccc(-c2cnn(CC34CC5(C)CC(C)(C3)CC(OCCN3CCCCC3)(C5)C4)c2C)c(C(=O)O)n1` [P38, 6-[3-(1,3-benzothiazol-2-ylamino)-4-methyl-6,7-dihydro-5H-pyrido[2,3-c]pyridazin-8-yl]-3-[1-[[3,5-dimethyl-7-[2-(1-piperidyl)ethoxy]-1-adamantyl]methyl]-5-methyl-pyrazol-4-yl]pyridine-2-carboxylic acid]: the pIC50 reads like this: under setting [1], 9.72; under setting [2], 9.48; under setting [3], 9.59.
As to `Cc1c(Nc2nc3ccccc3s2)nnc2c1CCCN2c1ccc(-c2cnn(C[C@]34C[C@]5(C)C[C@](C)(C3)C[C@@](OCCN3CCOCC3)(C5)C4)c2C)c(C(=O)O)n1` [P39, 6-[3-(1,3-benzothiazol-2-ylamino)-4-methyl-6,7-dihydro-5H-pyrido[2,3-c]pyridazin-8-yl]-3-[1-[[3,5-dimethyl-7-(2-morpholinoethoxy)-1-adamantyl]methyl]-5-methyl-pyrazol-4-yl]pyridine-2-carboxylic acid], the negative logarithm of the IC50 (pIC50) under setting [1] is 9.68, the negative logarithm of the IC50 (pIC50) under setting [2] was 9.47 and the pIC50 under setting [3] is 9.55.
On to `Cc1c(Nc2nc3ccccc3s2)nnc2c1CCCN2c1ccc(-c2cnn(C[C@]34C[C@@]5(C)C[C@](C)(C[C@](CCCN6CCCC6)(C5)C3)C4)c2C)c(C(=O)O)n1` [P41, 6-[3-(1,3-benzothiazol-2-ylamino)-4-methyl-6,7-dihydro-5H-pyrido[2,3-c]pyridazin-8-yl]-3-[1-[[3,5-dimethyl-7-(3-pyrrolidin-1-ylpropyl)-1-adamantyl]methyl]-5-methyl-pyrazol-4-yl]pyridine-2-carboxylic acid], for which the pIC50 was 8.48 under setting [1], 8.68 under setting [2] and 8.57 under setting [3].

Values taken from US20240269304A1, “BCL-XL INHIBITOR ANTIBODY-DRUG CONJUGATES AND METHODS OF USE THEREOF” (Novartis AG, priority 2020, published 2024).
